{"source": "paper PMC11156899", "about": "“High-throughput screening unveils nitazoxanide as a potent PRRSV inhibitor by targeting NMRAL1” (Nature Communications, 2024)", "key": {"[1]": {"test_system": "PRRSV (VR-2332, GSWW-15, GSWW-18)", "assay": "Viral titers of VR-2332, GSWW-15 and GSWW-18 in Marc-145 cells", "assay_type": "cell-based, Porcine Reproductive and Respiratory Syndrome Virus", "settings": "all three strains", "experimental": "Viral solutions were serially diluted by a factor of 10. Samples containing varying concentrations of virus (100 μL each) were combined with DMEM containing 2% FBS (100 μL) and added to wells; control wells were virus-free. […] Relative quantification qRT-PCR was used to assess PRRSV gene expression, normalized using the 2^−ΔΔCt method in Design & Analysis Software (v2.6.0). Absolute quantification qRT-PCR was used for viral copy number detection, with RNA concentration normalization prior to analysis, as described in our previous publication. Primers used included: PRRSV 5′-[…]′ and 5′-[…]-3′; Marc-145-GAPDH 5′-[…]-3′ and 5′-[…]-3′; PAM-GAPDH 5′-[…]-3′ and 5′-[…]-3′; IFNβ 5′-[…]-3′ and 5′-[…]-3′; Human-GAPDH 5′-[…]-3′ and 5′-[…]-3′.\n(§1) Supplementary Fig. 3: Cytotoxicity and Antiviral Efficacy of NTZ.\n(§2) PRRSV capsid protein positive\n(§3) (primary antibody SR30, green) and nuclei (DAPI, blue)."}, "[2]": {"assay": "Cytotoxicity assay (CC50) in MARC-145 cells", "assay_type": "cell-based", "settings": "African green monkey, 48 h of exposure, CCK-8", "excerpt": "Control wells contained DMEM with 0.5% DMSO.\nas §1, §2, §3"}, "PRRSV VR2332": {"test_system": "PRRSV VR2332", "assay": "EC50 against VR-2332 strain on PAM cells", "assay_type": "cell-based", "settings": "Porcine reproductive and respiratory syndrome virus", "excerpt": "as §1, §2, §3"}, "NMRAL1": {"target": "NMRAL1 (Chlorocebus sabaeus, UniProt A0A0D9R9W0)", "sequence (A0A0D9R9W0 entry or part of it)": "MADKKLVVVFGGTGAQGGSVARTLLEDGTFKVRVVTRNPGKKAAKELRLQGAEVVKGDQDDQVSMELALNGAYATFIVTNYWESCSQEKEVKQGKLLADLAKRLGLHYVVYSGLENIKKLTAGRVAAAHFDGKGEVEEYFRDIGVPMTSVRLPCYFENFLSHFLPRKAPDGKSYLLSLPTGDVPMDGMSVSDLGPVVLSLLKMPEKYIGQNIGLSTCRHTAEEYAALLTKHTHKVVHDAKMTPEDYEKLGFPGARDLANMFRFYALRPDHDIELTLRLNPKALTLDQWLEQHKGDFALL", "assay": "NMRAL1 dimerization (western blot, in cells and purified protein)", "assay_type": "biochemical", "settings": "in cells and with purified NMRAL1 protein", "excerpt": "In these proteins, we separately purified the proteins of NSP1α, NSP12, and NMRAL1. […] We speculate that NMRAL1 may be the primary target of NTZ action. […] Previous studies have shown NMRAL1 inhibits retinoic acid-inducible gene I (RIG-I) mediated antiviral responses. NTZ has been reported to activate the RIG-I pathway and induce an increase in IFN-β[25], which our findings corroborate (Fig. 6e–j). […] Differential Scanning Fluorimetry (DSF) confirmed NTZ binding to NMRAL1 (Fig. 6n). […] Molecular dynamics (MD) simulations were conducted for a more accurate understanding of TIZ’s role within the NMRAL1 dimer. Fluctuations or reductions in root-mean-square deviation (RMSD), Rg, and hydrogen bond count data after 80 ns indicated significant changes in the NMRAL1 system (Supplementary Fig. 12 a, b, d). […] TIZ primarily interacted with A chain’s LYS41, LYS42, LYS45, and B chain’s LYS92, LYS89, LYS95, GLN93, LEU96, LYS118, and ARG103, with B chain’s LYS92 and LYS89 and A chain’s LYS41 being the hotspots with binding energies greater than −1 kcal/mol (Supplementary Fig. 13). […]\nFor Western blot analysis, protein samples were heated at 95 °C for 8 min and then cooled to room temperature. […] The protein signals were detected using a chemiluminescent substrate (34577, Thermo) and visualized using the Gel Doc XR+ molecular imager (Bio-Rad)."}, "[3]": {"settings": "pig, in vivo, po", "experimental": "Blood samples were collected from the anterior vena cava for complete blood count using a PE-6800VET analyzer (Prokan) and biochemical analysis using a VetTest Plasma Chemistry Analyzer (IDEXX). Reference ranges were obtained from Iowa State University College of Veterinary Medicine (https://vetmed.iastate.edu/vpath/services/diagnostic-services/clinical-pathology/testing-and-fees/reference-intervals). IHC were performed as previously described, involving 24-h incubation with SR30 antibody (1:400) and subsequent treatment with HRP-labeled secondary antibody.\nSupplementary Fig. 6: Complete Blood Counts and Biochemical Analysis.\nSix animals from the same enclosure were divided into three groups (n = 2) and fed different doses of NTZ twice daily for three\nconsecutive days, with a 12-hour interval. Parameters measured included White Blood Cell (WBC) counts, Lymphocyte (LYM)\npercentages, Monocyte (MONO) counts, Neutrophil (NEU) counts, Red Blood Cell (RBC) counts, Hemoglobin (HGB)\nconcentration, Mean Corpuscular Hemoglobin (MCH), Mean Corpuscular Hemoglobin Concentration (MCHC), Platelet (PLT)\ncounts, Albumin (ALB) concentration, Total Protein (TP) concentration, Glucose (GLU) levels, Alkaline Phosphatase (ALP)\nlevels, Total Bilirubin (TBIL) levels, and Blood Urea Nitrogen (BUN) concentration. The grey areas in each panel represent the\nreference ranges for these indices."}, "PRRSV GSWW-18 strain": {"test_system": "PRRSV GSWW-18 strain", "assay": "In vivo antiviral effect in swine infected with GSWW-18 strain", "design": "species or system pig", "settings": "for PRRSV dynamics in blood within 24 h: 48 h post infection"}, "[4]": {"settings": "treatment group, only 25 mg/kg, P < 0.0001"}}, "data": [{"smiles": "CC(=O)Oc1ccccc1C(=O)Nc1ncc([N+](=O)[O-])s1", "note": "[Nitazoxanide]", "values": [{"measurement": "relation of concentration to viral titers", "setting": "[1]", "value": "negative correlation"}, {"measurement": "CC50 at 48 h", "setting": "[2]", "value": "~44", "unit": "µM"}, {"measurement": "EC50", "setting": "PRRSV VR2332", "value": "~0.67", "unit": "µM"}, {"measurement": "NMRAL1 dimer formation", "setting": "NMRAL1", "value": "increased NMRAL1 dimer formation"}, {"measurement": "adverse reactions (hematology, biochemical indices, clinical activity)", "setting": "[3]", "value": "No adverse reactions"}, {"measurement": "PRRSV dynamics in blood within 24 h", "setting": "PRRSV GSWW-18 strain; 5 mg/kg oral at 0 h and 12 h", "value": "viral loads decreased from 2 h to 8 h post administration"}, {"measurement": "PRRSV dynamics in blood within 24 h", "setting": "PRRSV GSWW-18 strain; 10 mg/kg oral at 0 h and 12 h", "value": "more pronounced inhibition"}, {"measurement": "body temperature and weight", "setting": "PRRSV GSWW-18 strain; 25 mg/kg oral", "value": "alleviated the rise in body temperature and weight loss"}, {"measurement": "lung PRRSV-positive cells (IHC)", "setting": "PRRSV GSWW-18 strain; 25 mg/kg oral, prophylactic and therapeutic groups, vs MOCK", "value": "fewer lung PRRSV-positive cells"}, {"measurement": "clinical symptoms by day 7", "setting": "PRRSV GSWW-18 strain; 25 mg/kg, treatment and prophylactic groups", "value": "no apparent clinical symptoms"}, {"measurement": "interstitial pneumonia with lobar consolidation", "setting": "PRRSV GSWW-18 strain; a specific dose of NTZ, PO BID 3 days", "value": "significantly mitigated"}, {"measurement": "fatalities within 14 days", "setting": "PRRSV GSWW-18 strain; pig, in vivo", "value": "no fatalities"}, {"measurement": "PRRSV replication in ManLNs, lungs and tonsils", "setting": "PRRSV GSWW-18 strain; prophylactic and treatment groups, P < 0.0332", "value": "significantly reduced"}, {"measurement": "PRRSV viral load in blood", "setting": "PRRSV GSWW-18 strain; prophylactic group, 5 mg/kg, P = 0.0033", "value": "significantly reduced"}, {"measurement": "viral copy numbers in BALF", "setting": "PRRSV GSWW-18 strain; prophylactic group, 10 mg/kg and 25 mg/kg, P < 0.0001", "value": "significant effects"}, {"measurement": "oronasal shedding", "setting": "PRRSV GSWW-18 strain; prophylactic group, 10 mg/kg, P = 0.0012", "value": "significantly lowered"}, {"measurement": "anal shedding", "setting": "PRRSV GSWW-18 strain; prophylactic group, even at 25 mg/kg", "value": "did not reduce"}, {"measurement": "viral copy numbers in BALF", "setting": "PRRSV GSWW-18 strain; [4]", "value": "achieved statistical significance"}, {"measurement": "virus in ILNs", "setting": "PRRSV GSWW-18 strain; [4]", "value": "significantly suppressed"}]}]}
